Reference: the supplement of paper PMC10307832

Experiments:
Experiment in all cases: relative viability (nuclei count vs DMSO), 5 days (fraction); higher = more cells survive
[1] = compound: C=CCNC1=C2C[C@@H](C)C[C@H](OC)[C@H](O)[C@@H](C)/C=C(\C)[C@H](OC(N)=O)[C@@H](OC)/C=C\C=C(/C)C(=O)NC(=CC1=O)C2=O [17-AAG] + NC(=O)Nc1cc(-c2cccc(F)c2)sc1C(=O)N[C@H]1CCCNC1 [AZD7762] (partner 0.2 µM)
Outline: (§1)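 Medians of duplicate plates are given as relative viability. That measure is the nuclei count in treated wells divided by the count in vehicle wells. Counts were taken on 4× images of lung cancer cell lines in 1536-well plates, 5 days after pin-tool dosing the day after seeding with one drug alone or a fixed anchor-drug dose plus five library-drug doses (not always all listed) in √10 steps.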

[2] = compound: C=CCNC1=C2C[C@@H](C)C[C@H](OC)[C@H](O)[C@@H](C)/C=C(\C)[C@H](OC(N)=O)[C@@H](OC)/C=C\C=C(/C)C(=O)NC(=CC1=O)C2=O [17-AAG] + O=C(c1cc(Cc2n[nH]c(=O)c3ccccc23)ccc1F)N1CCN(C(=O)C2CC2)CC1 [Olaparib] (partner 8 µM)
Outline: as §1

[3] = compound: C=CCNC1=C2C[C@@H](C)C[C@H](OC)[C@H](O)[C@@H](C)/C=C(\C)[C@H](OC(N)=O)[C@@H](OC)/C=C\C=C(/C)C(=O)NC(=CC1=O)C2=O [17-AAG] + CS(=O)(=O)CCNCc1ccc(-c2ccc3ncnc(Nc4ccc(OCc5cccc(F)c5)c(Cl)c4)c3c2)o1 [Lapatinib] (partner 2 µM)
Outline: as §1

[4] = compound: C=CCNC1=C2C[C@@H](C)C[C@H](OC)[C@H](O)[C@@H](C)/C=C(\C)[C@H](OC(N)=O)[C@@H](OC)/C=C\C=C(/C)C(=O)NC(=CC1=O)C2=O [17-AAG] + Nc1ncn([C@H]2C[C@H](O)[C@@H](CO)O2)c(=O)n1 [Decitabine] (partner 2 µM)
Outline: as §1

Cell Line	relative viability ([1]; first compound 0.00128 µM)	relative viability ([1]; first compound 0.004048 µM)	relative viability ([1]; first compound 0.0128 µM)	relative viability ([1]; first compound 0.04048 µM)	relative viability ([1]; first compound 0.128 µM)	relative viability ([2]; first compound 0.00128 µM)	relative viability ([2]; first compound 0.004048 µM)	relative viability ([2]; first compound 0.0128 µM)	relative viability ([2]; first compound 0.04048 µM)	relative viability ([2]; first compound 0.128 µM)	relative viability ([3]; first compound 0.00128 µM)	relative viability ([3]; first compound 0.004048 µM)	relative viability ([3]; first compound 0.0128 µM)	relative viability ([3]; first compound 0.04048 µM)	relative viability ([3]; first compound 0.128 µM)	relative viability ([4]; first compound 0.00128 µM)	relative viability ([4]; first compound 0.004048 µM)	relative viability ([4]; first compound 0.0128 µM)	relative viability ([4]; first compound 0.04048 µM)	relative viability ([4]; first compound 0.128 µM)
NCI-H1703	0.114	0.156	0.113	0.109	0.134	0.512	0.183	0.144	0.164	0.105	0.998	0.315	0.182	0.176	0.208	–	–	–	–	–
NCI-H2009	–	–	–	–	–	0.699	0.712	0.7	0.295	0.0798	1.16	0.954	0.816	0.424	0.0895	0.421	0.398	0.342	0.265	0.134
NCI-H2023	–	–	–	–	–	0.472	0.163	0.0796	0.0702	0.0752	0.872	0.675	0.0806	0.106	0.0805	0.178	0.168	0.0829	0.0643	0.0587
NCI-H2228	–	–	–	–	–	0.523	0.21	0.127	0.111	0.147	1.08	0.109	0.128	0.161	0.168	–	–	–	–	–
NCI-H2342	0.441	0.739	0.468	0.447	0.359	0.506	0.4	0.487	0.437	0.374	–	–	–	–	–	0.735	0.686	0.739	0.77	0.619
SK-LU-1	–	–	–	–	–	0.512	0.439	0.301	0.153	0.173	0.812	0.545	0.454	0.216	0.14	0.582	0.599	0.402	0.24	0.223
SK-MES-1	–	–	–	–	–	0.732	0.494	0.184	0.17	0.16	0.55	0.559	0.405	0.188	0.145	0.405	0.362	0.197	0.145	0.141
SW 900	0.661	0.68	0.255	0.11	0.133	0.892	0.491	0.244	0.192	0.163	–	–	–	–	–	0.45	0.368	0.332	0.257	0.181
SW 1573	–	–	–	–	–	0.441	0.234	0.182	0.113	0.0907	1.06	1.21	0.897	0.217	0.117	0.336	0.284	0.159	0.113	0.0972
UMC-11	–	–	–	–	–	0.519	0.376	0.261	0.0963	0.174	0.887	0.992	0.566	0.204	0.127	0.484	0.658	0.536	0.523	0.255
